This note sets out measurements from ChEMBL document CHEMBL3085631, “GluK1 antagonists from 6-(tetrazolyl)phenyl decahydroisoquinoline derivatives: in vitro profile and in vivo analgesic efficacy” (Bioorg Med Chem Lett, 2013).

As usually defined, the Ki is a measure of affinity in units of concentration, obtained from inhibition or displacement. One may read the bioavailability as the share of a dose that reaches the circulation, judged against a reference dose that is usually intravenous. Read a high bioavailability as good availability.

Series [1] concerns Rattus norvegicus. The series can be described thus: Analgesic activity in rat assessed as reversal of carrageenan-induced thermal hyperalgesia at 10 mg/kg, sc after 30 to 40 mins relative to vehicle-treated control. In kind it is functional. The following applies: route subcutaneous.
Series [2] addresses Glutamate receptor ionotropic, kainate 1 (Homo sapiens, UniProt P39086). Description: Displacement of [3H]ATPA from human Gluk1 receptor.
For the next series, the target named is Glutamate receptor 2 (Homo sapiens, UniProt P42262). Description: Displacement of [3H]AMPA from homomeric recombinant GluA2 receptor (unknown origin). Background: Displacement assays read how much labelled ligand stays bound in the presence of the test substance.
Glutamate receptor 2, sequence (P42262 whole entry): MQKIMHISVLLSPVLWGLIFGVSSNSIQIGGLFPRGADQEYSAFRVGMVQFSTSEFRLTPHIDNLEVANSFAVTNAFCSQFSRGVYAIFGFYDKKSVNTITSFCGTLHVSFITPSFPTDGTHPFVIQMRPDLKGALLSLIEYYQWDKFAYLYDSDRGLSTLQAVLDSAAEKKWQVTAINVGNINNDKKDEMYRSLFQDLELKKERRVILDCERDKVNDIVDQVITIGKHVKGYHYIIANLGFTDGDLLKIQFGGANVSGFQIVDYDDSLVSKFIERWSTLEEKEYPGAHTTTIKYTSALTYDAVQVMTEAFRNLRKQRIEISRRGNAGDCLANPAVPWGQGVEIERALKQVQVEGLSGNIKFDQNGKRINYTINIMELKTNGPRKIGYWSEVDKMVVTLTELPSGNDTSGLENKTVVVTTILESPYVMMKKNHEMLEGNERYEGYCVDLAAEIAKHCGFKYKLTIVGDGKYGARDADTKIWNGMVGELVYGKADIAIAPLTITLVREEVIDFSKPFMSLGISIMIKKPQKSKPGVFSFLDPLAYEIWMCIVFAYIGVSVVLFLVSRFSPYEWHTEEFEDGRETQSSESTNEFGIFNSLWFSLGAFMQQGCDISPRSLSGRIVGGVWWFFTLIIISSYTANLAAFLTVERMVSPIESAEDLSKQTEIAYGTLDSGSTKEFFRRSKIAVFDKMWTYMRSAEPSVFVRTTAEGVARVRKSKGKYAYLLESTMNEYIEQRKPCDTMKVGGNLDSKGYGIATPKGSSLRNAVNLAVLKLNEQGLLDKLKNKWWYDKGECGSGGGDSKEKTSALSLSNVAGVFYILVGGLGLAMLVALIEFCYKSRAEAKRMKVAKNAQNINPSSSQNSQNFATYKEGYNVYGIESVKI
Series [3] has as its system Rattus norvegicus. The series can be described thus: Toxicity in Sprague-Dawley rat assessed as ataxia at 5 to 10 mg/kg, po by rotarod test. In kind it is organism-based. More on the design: dose 5-10 mg/kg, route oral. The settings on record: in vivo. A general note: In the rotarod test animals must keep their balance on a rotating rod.
Series [4] has as its system Rattus norvegicus. The series can be described thus: Toxicity in Sprague-Dawley rat assessed as sedation at 5 to 10 mg/kg, po by rotarod test. In kind it is organism-based. Set-up: dose 5-10 mg/kg, route oral. The following applies: in vivo.
The test system of series [5] is Rattus norvegicus. The series can be described thus: Analgesic activity in po dosed Sprague-Dawley rat assessed as reversal of formalin-induced late-phase paw-licking behavior after 1 hr. In kind it is functional. The following applies: read-out: MED.
In series [6] the test system is Rattus norvegicus. The series can be described thus: Analgesic activity in po dosed rat assessed as reversal of carrageenan-induced thermal hyperalgesia after 60 mins. In kind it is functional. The settings on record: 1 h, read-out: MED.
Series [7] in a line: Plasma concentration in rat at 5 mg/kg, po after 1 hr. In kind it is ADME, organism-based. More on the design: dose 5 mg/kg, route oral.
Series [8] can be described thus: Oral bioavailability in rat at 5 mg/kg. The following applies: in vivo. The class given is ADME, organism-based.

SMILES strings stand for the structures.

Glutamate receptor ionotropic, kainate 1, sequence (P39086 whole entry): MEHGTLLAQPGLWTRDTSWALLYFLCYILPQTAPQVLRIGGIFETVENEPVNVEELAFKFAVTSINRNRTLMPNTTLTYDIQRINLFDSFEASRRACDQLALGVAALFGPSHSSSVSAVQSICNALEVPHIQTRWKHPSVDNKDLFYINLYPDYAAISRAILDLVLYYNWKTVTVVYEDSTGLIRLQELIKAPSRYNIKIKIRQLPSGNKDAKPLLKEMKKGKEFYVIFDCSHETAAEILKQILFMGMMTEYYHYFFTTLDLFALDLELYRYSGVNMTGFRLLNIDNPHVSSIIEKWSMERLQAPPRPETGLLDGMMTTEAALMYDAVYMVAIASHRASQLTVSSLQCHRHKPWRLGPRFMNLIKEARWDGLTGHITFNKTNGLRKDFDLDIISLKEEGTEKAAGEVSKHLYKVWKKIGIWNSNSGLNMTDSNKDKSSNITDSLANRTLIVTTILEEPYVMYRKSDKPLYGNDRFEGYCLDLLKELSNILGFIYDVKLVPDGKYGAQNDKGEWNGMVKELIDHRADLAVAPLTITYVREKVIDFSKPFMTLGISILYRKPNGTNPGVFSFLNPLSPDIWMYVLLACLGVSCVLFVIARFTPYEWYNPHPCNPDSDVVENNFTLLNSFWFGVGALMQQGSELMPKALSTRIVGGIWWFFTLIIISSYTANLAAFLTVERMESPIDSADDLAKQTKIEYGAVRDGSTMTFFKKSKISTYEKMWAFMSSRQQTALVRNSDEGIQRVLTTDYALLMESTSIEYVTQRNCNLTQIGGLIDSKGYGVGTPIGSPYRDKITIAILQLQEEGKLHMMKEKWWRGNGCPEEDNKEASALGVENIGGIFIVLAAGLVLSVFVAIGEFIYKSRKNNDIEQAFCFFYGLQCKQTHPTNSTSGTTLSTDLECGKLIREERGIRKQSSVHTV

Regarding `O=C(O)[C@@H]1C[C@H]2C[C@@H](Oc3ccccc3-c3nn[nH]n3)CC[C@H]2CN1`, the Activity in the series with Rattus norvegicus [1] stood at 152.6%. The Ki in [2] was 1200 nM; on Glutamate receptor 2, 16000 nM.

Turning to `O=C(O)[C@@H]1C[C@H]2C[C@@H](Nc3ccccc3-c3nn[nH]n3)CC[C@H]2CN1`, the Activity in the series on Rattus norvegicus [1] turned out to be 124.8%. Moreover, the Ki in series [2] was found to be 800 nM; on Glutamate receptor 2 it was 6000 nM.

On to `Cl.O=C(O)c1ccc(C[C@H]2CC[C@H]3CN[C@H](C(=O)O)C[C@H]3C2)cc1`, for which the Activity in the series with Rattus norvegicus [1] turned out to be 67.8%.

`O=C(O)[C@@H]1C[C@H]2C[C@@H](Oc3cc(Oc4ccccc4)ccc3-c3nnn[nH]3)CC[C@H]2CN1`: the Ki in series [2] is 17000 nM; on Glutamate receptor 2, 335000 nM.

On to `Cl.O=C(O)[C@@H]1C[C@H]2C[C@@H](Oc3cc(OCc4ccccc4)ccc3-c3nnn[nH]3)CC[C@H]2CN1`, for which the Activity with Rattus norvegicus [1] is 81.7%. In addition, the Ki in series [2] is 160 nM; on Glutamate receptor 2 it was 17000 nM.

As for `Cl.O=C(O)[C@@H]1C[C@H]2C[C@@H](Oc3cc(Cc4ccccc4)ccc3-c3nnn[nH]3)CC[C@H]2CN1`, in the series on Rattus norvegicus [1], the Activity is 89.8%. Moreover, the Ki in [2] stood at 160 nM; on Glutamate receptor 2, 9600 nM.

On to `O=C(O)[C@@H]1C[C@H]2C[C@@H](Oc3cc(CCc4ccccc4)ccc3-c3nnn[nH]3)CC[C@H]2CN1`, for which the Ki in series [2] is 1700 nM; at Glutamate receptor 2, 9600 nM.

In the case of `Cl.O=C(O)[C@@H]1C[C@H]2C[C@@H](Cc3ccccc3-c3nnn[nH]3)CC[C@H]2CN1`, the Activity in the series with Rattus norvegicus [1] came out at 73%. Moreover, the Ki came to 3000 nM in series [2] and 13000 nM on Glutamate receptor 2.

As to `Cl.O=C(O)[C@@H]1C[C@H]2C[C@@H](Sc3ccccc3-c3nnn[nH]3)CC[C@H]2CN1`, in the series on Rattus norvegicus [1], the Activity was 52.6%. Moreover, the Ki came out at 600 nM in [2] and 22000 nM on Glutamate receptor 2.

For the molecule `Cl.O=C(O)[C@@H]1C[C@H]2C[C@@H](Oc3cccc(Cl)c3-c3nnn[nH]3)CC[C@H]2CN1`, the results for the Activity entry in the series on Rattus norvegicus [3], in the series on Rattus norvegicus [4] and in the series with Rattus norvegicus [1] were “Toxic”, “Toxic” and 80.2%, respectively. The figures for the minimal effective dose with Rattus norvegicus [5] and with Rattus norvegicus [6] were 1 mg/kg and 3 mg/kg, respectively. Besides, the concentration at 1 h in series [7] was 1020 ng/mL. Besides, the bioavailability in series [8] came out at 42%. The Ki was found to be 200 nM in series [2] and 30000 nM at Glutamate receptor 2.

For the molecule `COc1cccc(O[C@H]2CC[C@H]3CN[C@H](C(=O)O)C[C@H]3C2)c1-c1nnn[nH]1`, the figures for the Ki (in series [2]; on Glutamate receptor 2) were 1100 nM and 252000 nM, respectively.

With `Cc1cccc(N[C@H]2CC[C@H]3CN[C@H](C(=O)O)C[C@H]3C2)c1-c1nnn[nH]1`, the figures for the Ki (in series [2]; on Glutamate receptor 2) were 3200 nM and 128000 nM, respectively.

Turning to `COc1cccc(N[C@H]2CC[C@H]3CN[C@H](C(=O)O)C[C@H]3C2)c1-c1nnn[nH]1`, the figures for the Ki (in series [2]; on Glutamate receptor 2) were 12800 nM and 181000 nM, respectively.

As for `O=C(O)[C@@H]1C[C@H]2C[C@@H](Nc3cccc(Cl)c3-c3nnn[nH]3)CC[C@H]2CN1`, the Ki at Glutamate receptor 2 was determined as 6400 nM.

In the case of `O=C(O)[C@@H]1C[C@H]2C[C@@H](Oc3ccc(F)cc3-c3nnn[nH]3)CC[C@H]2CN1`, the Ki in series [2] came to 900 nM; at Glutamate receptor 2, 2700 nM.

Consider `O=C(O)[C@@H]1C[C@H]2C[C@@H](Oc3ccc(Cl)cc3-c3nnn[nH]3)CC[C@H]2CN1`, for which the Ki (in series [2]; at Glutamate receptor 2) was 400 nM each time.

`O=C(O)[C@@H]1C[C@H]2C[C@@H](Nc3ccc(F)cc3-c3nnn[nH]3)CC[C@H]2CN1`: on Glutamate receptor 2, the Ki came to 12000 nM.

With `Cc1ccc(-c2nnn[nH]2)c(O[C@H]2CC[C@H]3CN[C@H](C(=O)O)C[C@H]3C2)c1`, the Ki in series [2] came out at 1100 nM; on Glutamate receptor 2, 5200 nM.

Consider `COc1ccc(-c2nnn[nH]2)c(O[C@H]2CC[C@H]3CN[C@H](C(=O)O)C[C@H]3C2)c1`, for which the inhibition constant Ki came to 1400 nM in [2] and 2000 nM at Glutamate receptor 2.

With `Cl.O=C(O)[C@@H]1C[C@H]2C[C@@H](Oc3cc(-c4ccccc4)ccc3-c3nnn[nH]3)CC[C@H]2CN1`, the Activity in the series on Rattus norvegicus [1] is recorded as 100.8%. Moreover, the Ki came out at 100 nM in [2] and 2300 nM at Glutamate receptor 2.

On to `Cc1ccc(-c2nnn[nH]2)c(N[C@H]2CC[C@H]3CN[C@H](C(=O)O)C[C@H]3C2)c1`, for which the Ki in [2] worked out at 2900 nM; on Glutamate receptor 2, 6200 nM.

With `O=C(O)[C@@H]1C[C@H]2C[C@@H](Nc3cc(-c4ccccc4)ccc3-c3nnn[nH]3)CC[C@H]2CN1`, the figures for the Ki (in series [2]; on Glutamate receptor 2) were 1100 nM and 3500 nM, respectively.

Take `O=C(O)[C@@H]1C[C@H]2C[C@@H](Oc3c(F)cccc3-c3nnn[nH]3)CC[C@H]2CN1`: the values for the Ki (in series [2]; on Glutamate receptor 2) were 422000 nM and 450000 nM, respectively.

Take `O=C(O)[C@@H]1C[C@H]2C[C@@H](Oc3cc(-c4ccccc4Cl)ccc3-c3nnn[nH]3)CC[C@H]2CN1`: the Ki in series [2] worked out at 1000 nM; at Glutamate receptor 2 it was 13000 nM.

With `O=C(O)[C@@H]1C[C@H]2C[C@@H](Oc3cc(-c4cccc(Cl)c4)ccc3-c3nnn[nH]3)CC[C@H]2CN1`, the results for the Ki (in series [2]; on Glutamate receptor 2) were 700 nM and 1700 nM, respectively.

As to `O=C(O)[C@@H]1C[C@H]2C[C@@H](Oc3cc(-c4ccc(Cl)cc4)ccc3-c3nnn[nH]3)CC[C@H]2CN1`, the Ki in [2] amounted to 20 nM; on Glutamate receptor 2 it was 3 nM.

Take `O=C(O)[C@@H]1C[C@H]2C[C@@H](Oc3cc(-c4nccs4)ccc3-c3nnn[nH]3)CC[C@H]2CN1`: the Ki in series [2] is 900 nM; on Glutamate receptor 2, 2200 nM.

Turning to `O=C(O)[C@@H]1C[C@H]2C[C@@H](Oc3cc(-c4cccs4)ccc3-c3nnn[nH]3)CC[C@H]2CN1`, the Ki amounted to 90 nM in [2] and 4400 nM at Glutamate receptor 2.

Regarding `O=C(O)[C@@H]1C[C@H]2C[C@@H](Oc3cc(-c4cccnc4)ccc3-c3nnn[nH]3)CC[C@H]2CN1`, the Ki in [2] turned out to be 10000 nM; on Glutamate receptor 2 it was 20000 nM.

As to `CC(C)Oc1ccc(-c2nnn[nH]2)c(O[C@H]2CC[C@H]3CN[C@H](C(=O)O)C[C@H]3C2)c1.Cl`, the Activity with Rattus norvegicus [1] is listed as 76.9%. The Ki was 900 nM in series [2] and 12000 nM on Glutamate receptor 2.

For the molecule `O=C(O)[C@@H]1C[C@H]2C[C@@H](CCc3nn[nH]n3)CC[C@H]2CN1` [TEZAMPANEL ANHYDROUS], in the series with Rattus norvegicus [1], the Activity is recorded as 133%.
